Experimental data taken from ChEMBL document CHEMBL1155973, “Disubstituted pyrimidines as Lck inhibitors” (Bioorg Med Chem Lett, 2009).

Experiments:
[1] = biological target: T1, Tyrosine-protein kinase Lck (Homo sapiens, UniProt P06239); assay: Inhibition of Lck
[2] = system: Jurkat; assay: Inhibition of antigen-stimulated IL-2 production in human Jurkat cells expressing MART-1 antigen specific TCR; format: functional, cell-based
[3] = biological target: T1, Tyrosine-protein kinase Lck; assay: Inhibition of Lck kinase activity

T1 sequence (P06239 whole entry): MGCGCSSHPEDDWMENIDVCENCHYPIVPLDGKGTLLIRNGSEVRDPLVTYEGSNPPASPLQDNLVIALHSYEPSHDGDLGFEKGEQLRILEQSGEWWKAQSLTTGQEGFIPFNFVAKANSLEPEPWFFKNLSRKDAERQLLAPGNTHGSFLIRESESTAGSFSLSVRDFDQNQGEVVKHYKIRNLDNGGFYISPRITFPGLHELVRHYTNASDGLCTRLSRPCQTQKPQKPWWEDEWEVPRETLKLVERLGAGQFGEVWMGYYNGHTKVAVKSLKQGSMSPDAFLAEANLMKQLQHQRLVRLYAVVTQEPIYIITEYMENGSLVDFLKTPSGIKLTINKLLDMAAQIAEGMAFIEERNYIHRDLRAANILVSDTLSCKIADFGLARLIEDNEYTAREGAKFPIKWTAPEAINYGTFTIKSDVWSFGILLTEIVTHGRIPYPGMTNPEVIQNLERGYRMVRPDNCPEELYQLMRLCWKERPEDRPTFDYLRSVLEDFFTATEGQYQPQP

SMILES	IC50 [1]	IC50 ([2]; Homo sapiens, Jurkat)	IC50 [3]	IC50 ([2]; jurkat)
C[C@H](Nc1nccc(-n2cnc3ccccc32)n1)C1CCCCC1	243 nM			
C[C@H](Nc1nccc(-n2cnc3cc(-c4ccncc4)ccc32)n1)c1ccccc1	3 nM	98 nM		
O=C(c1ccc2ccccc2c1)N1CCCC(CNc2nccc(-n3cnc4ccccc43)n2)C1 (centres undefined)	106 nM			
CC(Nc1nccc(-n2cnc3ccccc32)n1)C1CN(S(C)(=O)=O)CCN1C (centres undefined)	22.5 nM	> 1000 nM		
CC(Nc1nccc(-n2cnc3ccccc32)n1)C1CCCN(C(=O)OCc2ccccc2)C1 (stereo in doubt; 12a)	144 nM			
C[C@H](Nc1nccc(-n2cnc3ccccc32)n1)[C@@H]1CN(C(=O)Nc2cccc3ccccc23)CCN1c1ccncc1	0.2 nM	546 nM		
C[C@H](Nc1nccc(-n2cnc3cc(-c4ccnc(N)n4)ccc32)n1)[C@@H]1CN(C(=O)Nc2cccc3ccccc23)CCN1C	0.07 nM	16 nM		
Cc1cc2ncn(-c3ccnc(N[C@@H](C)c4ccccc4)n3)c2cc1C	2070 nM		2070 nM	
CC(Nc1nccc(-n2cnc3ccccc32)n1)C1CCCN(C(=O)Nc2ccc3ccccc3c2)C1 (centres undefined)	40 nM			
Cc1nc2ccccc2n1-c1ccnc(N[C@@H](C)c2ccccc2)n1	> 20000 nM		> 20000 nM	
CC(Nc1nccc(-n2cnc3ccccc32)n1)C1CN(Cc2ccccc2)CCN1C (centres undefined)	501 nM	> 10000 nM		
CN1CCN(C(=O)c2ccc3ccccc3c2)CC1CNc1nccc(-n2cnc3ccccc32)n1 (centres undefined)	10 nM			
CC(Nc1nccc(-n2cnc3ccccc32)n1)C1CCCN(C(=O)Oc2ccccc2)C1 (centres undefined)	46 nM			
C[C@H](Nc1nccc(-n2cnc3cc(-c4ccnc(N)n4)ccc32)n1)c1ccccc1	1.5 nM	111 nM		
Cc1ccc2c(c1)ncn2-c1ccnc(N[C@@H](C)c2ccccc2)n1	128 nM		128 nM	
CC(Nc1nccc(-n2cnc3ccccc32)n1)C1CCCN(C(=O)Cc2ccccc2)C1 (centres undefined)	800 nM			
CC(Nc1nccc(-n2cnc3ccccc32)n1)C1CN(C(=O)Nc2ccc3ccccc3c2)CCN1C (centres undefined)	75.2 nM	> 1000 nM		
C[C@H](Nc1nccc(-n2cnc3cc(-c4ccncc4)ccc32)n1)[C@@H]1CN(C(=O)Nc2cccc3ccccc23)CCN1C	0.12 nM	8 nM		
CC(Nc1nccc(-n2cnc3ccccc32)n1)C1CCCN(C(=O)OCc2ccccc2)C1 (stereo in doubt; 12b)	2720 nM			
O=C(c1ccc2ccccc2c1)N1CCOC(CNc2nccc(-n3cnc4ccccc43)n2)C1 (centres undefined)	203 nM			
CNC(=O)N1CCCC(C(C)Nc2nccc(-n3cnc4ccccc43)n2)C1 (centres undefined)	242 nM			
CC(Nc1nccc(-n2cnc3ccccc32)n1)C1CCCN(C(=O)NC2CCCCC2)C1 (centres undefined)	1260 nM			
Cc1ccc2ncn(-c3ccnc(N[C@@H](C)c4ccccc4)n3)c2c1	58 nM		58 nM	
CC(Nc1nccc(-n2cnc3ccccc32)n1)C1CCCN(C(=O)Nc2ccccc2)C1 (centres undefined)	11 nM			

Next, values leading:

IC50 [1]	IC50 ([2]; Homo sapiens, Jurkat)	IC50 [3]	IC50 ([2]; jurkat)	SMILES
1770 nM				C[C@@H](Nc1nccc(-n2cnc3ccccc32)n1)c1ccccc1
0.06 nM	111 nM			C[C@H](Nc1nccc(-n2cnc3ccccc32)n1)[C@@H]1CN(C(=O)Nc2cccc3ccccc23)CCN1C
11.8 nM	> 1000 nM			CC(Nc1nccc(-n2cnc3ccccc32)n1)C1CN(C(=O)Nc2cccc3ccccc23)CCN1S(C)(=O)=O (centres undefined)
2.6 nM	> 1000 nM			CC(Nc1nccc(-n2cnc3ccccc32)n1)C1CN(C(=O)Nc2cccc3ccccc23)CCN1Cc1ccccc1 (centres undefined)
> 1000 nM	> 10000 nM			CC(Nc1nccc(-n2cnc3ccccc32)n1)C1CN(C)CCN1C (centres undefined)
0.45 nM	847 nM			CCOC(=O)CN1CCN(C(=O)Nc2cccc3ccccc23)C[C@H]1[C@H](C)Nc1nccc(-n2cnc3ccccc32)n1
827 nM				c1ccc(CNc2nccc(-n3cnc4ccccc43)n2)cc1
26.5 nM	> 10000 nM			CC(Nc1nccc(-n2cnc3ccccc32)n1)C1CN(C(=O)Nc2cccc3ccccc23)CCN1S(=O)(=O)c1ccccc1 (centres undefined)
153 nM				C[C@H](Nc1nccc(-n2cnc3ccccc32)n1)c1ccccc1
0.07 nM	154 nM			CCN1CCN(C(=O)Nc2cccc3ccccc23)C[C@H]1[C@H](C)Nc1nccc(-n2cnc3ccccc32)n1
17.4 nM			> 1000 nM	CC(Nc1nccc(-n2cnc3ccccc32)n1)C1CN(C(=O)Nc2cccc3ccccc23)CCN1C (single isomer, unassigned; diastereomer 2)
650 nM				O=C(OCc1ccccc1)N1CCCC(CNc2nccc(-n3cnc4ccccc43)n2)C1 (centres undefined)
0.2 nM	538 nM			CC(C)CN1CCN(C(=O)Nc2cccc3ccccc23)C[C@H]1[C@H](C)Nc1nccc(-n2cnc3ccccc32)n1
47 nM				C[C@H](Nc1nccc(-n2cnc3ccccc32)n1)c1cccc([N+](=O)[O-])c1
1 nM				CC(Nc1nccc(-n2cnc3ccccc32)n1)C1CCCN(C(=O)Nc2cccc3ccccc23)C1 (racemic)
> 10000 nM				O=C(Nc1cccc2ccccc12)N1CCC(CNc2nccc(-n3cnc4ccccc43)n2)C1 (centres undefined)
> 20000 nM				O=C(OCc1ccccc1)N1CCCCC1CNc1nccc(-n2cnc3ccccc32)n1 (centres undefined)
0.25 nM			361 nM	CC(Nc1nccc(-n2cnc3ccccc32)n1)C1CN(C(=O)Nc2cccc3ccccc23)CCN1C (single isomer, unassigned; diastereomer 1)
0.4 nM				C[C@H](Nc1nccc(-n2cnc3ccccc32)n1)[C@H]1CCCN(C(=O)Nc2cccc3ccccc23)C1
110 nM				O=C(Nc1cccc2ccccc12)N1CCNC(CNc2nccc(-n3cnc4ccccc43)n2)C1 (centres undefined)
> 1000 nM	> 10000 nM			CC(Nc1nccc(-n2cnc3ccccc32)n1)C1CN(C(=O)Nc2cccc3ccccc23)CCN1C(=O)OCc1ccccc1 (centres undefined)
1.8 nM	> 1000 nM			CCCCCCN1CCN(C(=O)Nc2cccc3ccccc23)C[C@H]1[C@H](C)Nc1nccc(-n2cnc3ccccc32)n1
> 20000 nM				O=C(OCc1ccccc1)N1CCC(CNc2nccc(-n3cnc4ccccc43)n2)CC1
1 nM	167 nM			CCN1CCN(c2ccc3c(c2)ncn3-c2ccnc(N[C@@H](C)c3ccccc3)n2)C1=O
0.4 nM	42 nM			CCN1CCN(c2ccc3c(c2)ncn3-c2ccnc(N[C@@H](C)[C@@H]3CN(C(=O)Nc4cccc5ccccc45)CCN3C)n2)C1=O
115 nM	> 10000 nM			CC(=O)N1CCN(C(=O)Nc2cccc3ccccc23)C[C@H]1[C@H](C)Nc1nccc(-n2cnc3ccccc32)n1
> 1000 nM	> 10000 nM			CC(Nc1nccc(-n2cnc3ccccc32)n1)C1CNCCN1C (centres undefined)
